Measurements: patent publication US9624170B2, “4-(piperrazin-1-yl)-pyrrolidin-2-one compounds as monoacylglycerol lipase (MAGL) inhibitors” (TAKEDA PHARMACEUTICAL COMPANY LIMITED, priority 2013, dated 2017)

These compounds were tested against T1, human MAGL (His-hMAGL) (Homo sapiens, UniProt Q99685) (assay: Measurement of MAGL inhibitory activity by mass spectrometry). Conditions: 10 μM test compound; substrate 2-arachidonylglycerol, arachidonic acid by RapidFire-mass spectrometry.
T1 construct: made in house; host or cells: Escherichia coli BL21(DE3)
T1 sequence (Q99685 1-303): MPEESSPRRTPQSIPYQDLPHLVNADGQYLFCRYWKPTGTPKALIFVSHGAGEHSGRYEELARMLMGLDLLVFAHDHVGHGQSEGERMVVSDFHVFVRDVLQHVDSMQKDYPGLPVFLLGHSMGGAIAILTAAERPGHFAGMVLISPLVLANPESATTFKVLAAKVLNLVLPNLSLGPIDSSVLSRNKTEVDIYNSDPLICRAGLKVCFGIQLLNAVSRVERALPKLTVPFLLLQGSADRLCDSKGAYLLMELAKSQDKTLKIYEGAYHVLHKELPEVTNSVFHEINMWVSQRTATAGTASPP
Type: biochemical
Outline: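 His-tagged human MAGL was reacted with 150 μM 2-arachidonylglycerol substrate (stock, added by 5 μL) for 10 min at room temperature, then stopped with formic acid. Arachidonic acid product was quantified by RapidFire–triple-quadrupole MS in negative SRM mode, corrected by arachidonic acid-d8, and converted to percent inhibition.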

inhibition at 10 µM [%] | SMILES
99 | CC(=O)Nc1ccc(Nc2cccc(N3CC(N4CCN(C(=O)c5nccs5)CC4)CC3=O)c2)cc1 (stereo not shown) [Example 116, N-(4-((3-(2-oxo-4-(4-(1,3-thiazol-2-ylcarbonyl)piperazin-1-yl)pyrrolidin-1-yl)phenyl)amino)phenyl)acetamide]
100 | CCc1ccccc1-c1cccc(N2CC(N3CCN(C(=O)c4nccs4)CC3)CC2=O)c1 (stereo not shown) [Example 142, 1-(2′-ethylbiphenyl-3-yl)-4-(4-(1,3-thiazol-2-ylcarbonyl)piperazin-1-yl)pyrrolidin-2-one]
99 | CC(=O)Nc1cccc(Nc2cccc(N3CC(N4CCN(C(=O)c5nccs5)CC4)CC3=O)c2)c1 (stereo not shown) [Example 118, N-(3-((3-(2-oxo-4-(4-(1,3-thiazol-2-ylcarbonyl)piperazin-1-yl)pyrrolidin-1-yl)phenyl)amino)phenyl)acetamide]
100 | Cc1ccccc1-c1ccc(N2CC(N3CCN(C(=O)c4nccs4)CC3)CC2=O)cc1 (stereo not shown) [Example 176, 1-(2′-methylbiphenyl-4-yl)-4-(4-(1,3-thiazol-2-ylcarbonyl)piperazin-1-yl)pyrrolidin-2-one]
102 | O=C(c1nccs1)N1CCN(C2CC(=O)N(c3cccc(-c4c(F)cccc4F)c3)C2)CC1 (stereo not shown) [Example 145, 1-(2′,6′-Difluorobiphenyl-3-yl)-4-(4-(1,3-thiazol-2-ylcarbonyl)piperazin-1-yl)pyrrolidin-2-one]
100 | O=C(c1nccs1)N1CCN(C2CC(=O)N(c3cccc(-c4c(Cl)cccc4Cl)c3)C2)CC1 (stereo not shown) [Example 146, 1-(2′,6′-dichlorobiphenyl-3-yl)-4-(4-(1,3-thiazol-2-ylcarbonyl)piperazin-1-yl)pyrrolidin-2-one]
97 | O=C(c1nccs1)N1CCN(C2CC(=O)N(c3cccc(NC4CCCCC4)c3)C2)CC1 (stereo not shown) [Example 115, 1-(3-(cyclohexylamino)phenyl)-4-(4-(1,3-thiazol-2-ylcarbonyl)piperazin-1-yl)pyrrolidin-2-one]
99 | CC(=O)Nc1cccc(-c2cccc(N3CC(N4CCN(C(=O)c5nccs5)CC4)CC3=O)c2)c1 (stereo not shown) [Example 95, N-(3′-(2-oxo-4-(4-(1,3-thiazol-2-ylcarbonyl)piperazin-1-yl)pyrrolidin-1-yl)biphenyl-3-yl)acetarnide]

Same assay, conditions: MAGL inhibitory rate, test compound 10 μM, His-hMAGL, substrate 2-arachidonylglycerol, RapidFire-mass spectrometry

inhibition at 10 µM [%] | SMILES
95 | O=C1CC(N2CCN(c3ncccn3)CC2)CN1c1ccc2c(c1)CCN2c1ncc(C(F)(F)F)cn1 (stereo not shown) [Example 378, 4-(4-(Pyrimidin-2-yl)piperazin-1-yl)-1-(1-(5-(trifluoromethyl)pyrimidin-2-yl)-2,3-dihydro-1H-indol-5-yl)pyrrolidin-2-one]
91 | O=C1CC(N2CCN(c3ncccn3)CC2)CN1c1cc(F)cc(Br)c1 (stereo not shown) [Example 403, 1-(3-Bromo-5-fluorophenyl)-4-(4-(pyrimidin-2-yl)piperazin-1-yl)pyrrolidin-2-one]
98 | O=C(c1nccs1)N1CCN(C2CC(=O)N(c3cccc(-c4c(F)cccc4Cl)c3)C2)CC1 (stereo not shown) [Example 344, 1-(2′-chloro-6′-fluorobiphenyl-3-yl)-4-(4-(1,3-thiazol-2-ylcarbonyl)piperazin-1-yl)pyrrolidin-2-one]
101 | CC(C)CC(=O)N1CCc2cc(N3CC(N4CCN(C(=O)c5nccs5)CC4)CC3=O)ccc21 (stereo not shown) [Example 397, 1-(1-(3-methylbutanoyl)-2,3-dihydro-1H-indol-5-yl)-4-(4-(1,3-thiazol-2-ylcarbonyl)piperazin-1-yl)pyrrolidin-2-one]
98 | COc1cc(C(F)(F)F)ccc1-c1cccc(N2CC(N3CCN(C(=O)c4nccs4)CC3)CC2=O)c1 (stereo not shown) [Example 310, 1-(2′-methoxy-4′-(trifluoromethyl)biphenyl-3-yl)-4-(4-(1,3-thiazol-2-ylcarbonyl)piperazin-1-yl)pyrrolidin-2-one]
92 | O=C1CC(N2CCN(c3ncccn3)CC2)CN1c1ccc2c(ccn2-c2ccnc(C(F)(F)F)c2)c1 (stereo not shown) [Example 361, 4-(4-(pyrimidin-2-yl)piperazin-1-yl)-1-(1-(2-(trifluoromethyl)pyridin-4-yl)-1H-indol-5-yl)pyrrolidin-2-one]
97 | Cc1nc(C)c(-c2ccc(N3CC(N4CCN(C(=O)c5nccs5)CC4)CC3=O)cc2)s1 (stereo not shown) [Example 189, 1-(4-(2,4-dimethyl-1,3-thiazol-5-yl)phenyl)-4-(4-(1,3-thiazol-2-ylcarbonyl)piperazin-1-yl)pyrrolidin-2-one]
102 | Cc1cnc(-n2ccc3cc(N4CC(N5CCN(C(=O)c6nccs6)CC5)CC4=O)ccc32)nc1 (stereo not shown) [Example 358, 1-(1-(5-methylpyrimidin-2-yl)-1H-indol-5-yl)-4-(4-(1,3-thiazol-2-ylcarbonyl)piperazin-1-yl)pyrrolidin-2-one]
102 | O=C(c1nccs1)N1CCN(C2CC(=O)N(c3cccc(-c4coc5ccccc45)c3)C2)CC1 (stereo not shown) [Example 328, 1-(3-(1-benzofuran-3-yl)phenyl)-4-(4-(1,3-thiazol-2-ylcarbonyl)piperazin-1-yl)pyrrolidin-2-one]
100 | O=C(c1cscn1)N1CCN([C@@H]2CC(=O)N(c3ccc4c(ccn4-c4ncc(C(F)(F)F)cn4)c3)C2)CC1 [Example 432, (4R)-4-(4-(1,3-Thiazol-4-ylcarbonyl)piperazin-1-yl)-1-(1-(5-(trifluoromethyl)pyrimidin-2-yl)-1H-indol-5-yl)pyrrolidin-2-one]
101 | Cc1cc(C)cc(-n2ccc3cc(N4CC(N5CCN(C(=O)c6nccs6)CC5)CC4=O)ccc32)c1 (stereo not shown) [Example 279, 1-(1-(3,5-dimethylphenyl)-1H-indol-5-yl)-4-(4-(1,3-thiazol-2-ylcarbonyl)piperazin-1-yl)pyrrolidin-2-one]
101 | O=C(c1nccs1)N1CCN(C2CC(=O)N(c3cccc(-c4cnc5ccccn45)c3)C2)CC1 (stereo not shown) [Example 331, 1-(3-(imidazo[1,2-a]pyridin-3-yl)phenyl)-4-(4-(1,3-thiazol-2-ylcarbonyl)piperazin-1-yl)pyrrolidin-2-one]
101 | CN1C(=O)Cc2c(-c3cccc(N4CC(N5CCN(C(=O)c6nccs6)CC5)CC4=O)c3)cccc21 (stereo not shown) [Example 230, 1-methyl-4-(3-(2-oxo-4-(4-(1,3-thiazol-2-ylcarbonyl)piperazin-1-yl)pyrrolidin-1-yl)phenyl)-1,3-dihydro-2H-indol-2-one]
100 | Cc1cccc(-n2ccc3cc(N4CC(N5CCN(C(=O)c6nccs6)CC5)CC4=O)ccc32)n1 (stereo not shown) [Example 238, 1-(1-(6-methylpyridin-2-yl)-1H-indol-5-yl)-4-(4-(1,3-thiazol-2-ylcarbonyl)piperazin-1-yl)pyrrolidin-2-one]
100 | CC(C)(C)CC(=O)N1CCc2cc(N3C[C@H](N4CCN(C(=O)c5cscn5)CC4)CC3=O)ccc21 [Example 414, (4R)-1-(1-(3,3-dimethylbutanoyl)-2,3-dihydro-1H-indol-5-yl)-4-(4-(1,3-thiazol-4-ylcarbonyl)piperazin-1-yl)pyrrolidin-2-one]
101 | O=C(c1nccs1)N1CCN(C2CC(=O)N(c3cccc(-c4ccc(F)c(C(F)(F)F)c4)c3)C2)CC1 (stereo not shown) [Example 315, 1-(4′-fluoro-3′-(trifluoromethyl)biphenyl-3-yl)-4-(4-(1,3-thiazol-2-ylcarbonyl)piperazin-1-yl)pyrrolidin-2-one]
102 | NC(=O)Cc1cccc(-c2cccc(N3CC(N4CCN(C(=O)c5nccs5)CC4)CC3=O)c2)c1 (stereo not shown) [Example 319, 2-(3′-(2-oxo-4-(4-(1,3-thiazol-2-ylcarbonyl)piperazin-1-yl)pyrrolidin-1-yl)biphenyl-3-yl)acetamide]
101 | O=C(c1nccs1)N1CCN(C2CC(=O)N(c3cccc(-c4ccsc4C(F)(F)F)c3)C2)CC1 (stereo not shown) [Example 341, 4-(4-(1,3-thiazol-2-ylcarbonyl)piperazin-1-yl)-1-(3-(2-(trifluoromethyl)-3-thienyl)phenyl)pyrrolidin-2-one]
100 | O=C(c1nccs1)N1CCN(C2CC(=O)N(c3cccc(-c4csc5ncccc45)c3)C2)CC1 (stereo not shown) [Example 347, 4-(4-(1,3-thiazol-2-ylcarbonyl)piperazin-1-yl)-1-(3-(thieno[2,3-b]pyridin-3-yl)phenyl)pyrrolidin-2-one]
102 | O=C(c1cccc(-c2cccc(N3CC(N4CCN(C(=O)c5nccs5)CC4)CC3=O)c2)c1)N1CCCC1 (stereo not shown) [Example 321, 1-(3′-(pyrrolidin-1-ylcarbonyl)biphenyl-3-yl)-4-(4-(1,3-thiazol-2-ylcarbonyl)piperazin-1-yl)pyrrolidin-2-one]
101 | O=C(c1nccs1)N1CCN(C2CC(=O)N(c3cccc(-c4cc(Cl)ccc4Cl)c3)C2)CC1 (stereo not shown) [Example 300, 1-(2′,5′-dichlorobiphenyl-3-yl)-4-(4-(1,3-thiazol-2-ylcarbonyl)piperazin-1-yl)pyrrolidin-2-one]
98 | CS(=O)(=O)Nc1ccccc1-c1cccc(N2CC(N3CCN(C(=O)c4nccs4)CC3)CC2=O)c1 (stereo not shown) [Example 302, N-(3′-(2-oxo-4-(4-(1,3-thiazol-2-ylcarbonyl)piperazin-1-yl)pyrrolidin-1-yl)biphenyl-2-yl)methanesulfonamide]
100 | COc1ccsc1-c1cccc(N2CC(N3CCN(C(=O)c4nccs4)CC3)CC2=O)c1 (stereo not shown) [Example 323, 1-(3-(3-methoxy-2-thienyl)phenyl)-4-(4-(1,3-thiazol-2-ylcarbonyl)piperazin-1-yl)pyrrolidin-2-one]
